This passage reports TGI results from PubChem BioAssay (NCI).

Test systems include MALME-3M melanoma; SN12C renal; OVCAR-3 ovarian; HCT-116 colon; HL-60(TB) leukemia; SR leukemia; LOX IMVI melanoma; MDA-MB-435; CCRF-CEM leukemia; HOP-92 NSCLC; NCI-H460 lung; MOLT-4 leukemia; PC-3 prostate; SK-OV-3 ovarian; A498 renal; TK-10 renal; U251 CNS; COLO 205 colon; HCC-2998 colon.
Holding throughout (test): NCI-60 cell line screen, 48 h

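Cells were grown in 96-well plates and exposed to each compound for 48 hours at five concentrations; endpoints were interpolated linearly between bracketing concentrations, or set to the highest concentration if not reached. TGI: concentration producing complete growth inhibition.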

Turning to `O=C(CN1CCNCCN(CC(=O)N2CCCCC2)CCNCC1)N1CCCCC1`, the TGI in the test on MALME-3M melanoma was over 100 µM; with SN12C renal it was over 100 µM; in the test on OVCAR-3 ovarian, over 100 µM; in the test on HCT-116 colon it was over 100 µM; with HL-60(TB) leukemia, 69.4 µM; with SR leukemia, over 100 µM. Besides, the TGI in the test with LOX IMVI melanoma, in the test on MDA-MB-435, in the test on CCRF-CEM leukemia, in the test with HOP-92 NSCLC, in the test with NCI-H460 lung and with MOLT-4 leukemia was over 100 µM throughout. Also, the TGI in the test with PC-3 prostate, in the test with SK-OV-3 ovarian, in the test with A498 renal, in the test on TK-10 renal, in the test on U251 CNS and in the test with COLO 205 colon was over 100 µM in each case.
In the case of `N#C/C(=C\c1ccccc1)C(=O)Nc1nnc(-c2ccccc2)o1`, the TGI in the test with MALME-3M melanoma is over 100 µM; in the test with HCC-2998 colon, over 100 µM; in the test on SN12C renal, over 100 µM; with OVCAR-3 ovarian, 66.3 µM; in the test on HCT-116 colon, over 100 µM; with HL-60(TB) leukemia it was 40.9 µM. The TGI was 93.2 µM with SR leukemia; over 100 µM with LOX IMVI melanoma; over 100 µM with MDA-MB-435; 50.6 µM in the test on CCRF-CEM leukemia; over 100 µM in the test on HOP-92 NSCLC; over 100 µM with MOLT-4 leukemia. Also, the TGI with PC-3 prostate is over 100 µM; in the test with SK-OV-3 ovarian it was over 100 µM; in the test with A498 renal, 72.7 µM; with TK-10 renal, over 100 µM; with U251 CNS, over 100 µM; in the test on COLO 205 colon, 80.4 µM.
On to `CC1(CCC2C=CCC2)CCCNC1=S` (configuration not stated), for which the TGI with MALME-3M melanoma, in the test on HCC-2998 colon, with SN12C renal, in the test on OVCAR-3 ovarian, in the test with HCT-116 colon and in the test with HL-60(TB) leukemia was over 10 µM each time. Also, the TGI in the test on SR leukemia, in the test on LOX IMVI melanoma, in the test with MDA-MB-435, with CCRF-CEM leukemia, with HOP-92 NSCLC and in the test on NCI-H460 lung was over 10 µM in each case. Besides, the TGI with MOLT-4 leukemia, with PC-3 prostate, in the test with SK-OV-3 ovarian, in the test with A498 renal, with TK-10 renal and in the test on U251 CNS was over 10 µM throughout.
With `COC(=O)C1CCC(=O)N1CN(C(C)=O)c1ccccc1` (configuration not stated), the TGI in the test with MALME-3M melanoma, in the test with SN12C renal, in the test on OVCAR-3 ovarian, with HCT-116 colon, in the test with HL-60(TB) leukemia and in the test with SR leukemia was over 100 µM each time. For the same molecule, the TGI in the test on LOX IMVI melanoma, in the test on MDA-MB-435, in the test with CCRF-CEM leukemia, in the test on HOP-92 NSCLC, in the test on NCI-H460 lung and with MOLT-4 leukemia was over 100 µM in each case. The TGI in the test with PC-3 prostate, in the test on SK-OV-3 ovarian, in the test with A498 renal, in the test with TK-10 renal, in the test with U251 CNS and with COLO 205 colon was over 100 µM in each case.
With `COC(=O)C1C(OC(=O)c2ccccc2)CC2CCC1N2C(N)=O` (configuration not stated), the TGI with MALME-3M melanoma, in the test with HCC-2998 colon, with SN12C renal, in the test on OVCAR-3 ovarian, in the test on HCT-116 colon and in the test with HL-60(TB) leukemia was over 100 µM in each case. In addition, the TGI in the test with SR leukemia, in the test on LOX IMVI melanoma, in the test with MDA-MB-435, with CCRF-CEM leukemia, in the test with HOP-92 NSCLC and in the test on NCI-H460 lung was over 100 µM in each case. Moreover, the TGI in the test on MOLT-4 leukemia, in the test on PC-3 prostate, with SK-OV-3 ovarian, in the test on A498 renal, in the test on U251 CNS and in the test with COLO 205 colon was over 100 µM in each case.
Turning to `CC(=O)OC1C(O)COC(O[C@H]2CC[C@]34C[C@]35CC[C@]3(C)C([C@@]6(C)CC[C@@H](C(C)(C)O)O6)[C@@H](O)C[C@@]3(C)C5C[C@H](OC3OCC(O)C(O)C3O)[C@H]4C2(C)C)C1OC1OCC(O)C(O)C1O` (some centres not stated), the TGI in the test with MALME-3M melanoma, in the test with HCC-2998 colon, with SN12C renal, in the test on OVCAR-3 ovarian, with HCT-116 colon and in the test with HL-60(TB) leukemia was over 100 µM each time. For the same molecule, the TGI in the test on SR leukemia, in the test on LOX IMVI melanoma, in the test with MDA-MB-435, with HOP-92 NSCLC, in the test on NCI-H460 lung and in the test on MOLT-4 leukemia was over 100 µM each time. In addition, the TGI in the test on PC-3 prostate, in the test with SK-OV-3 ovarian, with A498 renal, in the test with TK-10 renal, with U251 CNS and in the test on COLO 205 colon was over 100 µM throughout.
`O=C(NCCCCCCCCNC(=O)c1cc(-c2ccccc2)nc2ccccc12)c1cc(-c2ccccc2)nc2ccccc12`: the TGI in the test on MALME-3M melanoma, in the test on SN12C renal, in the test with OVCAR-3 ovarian, in the test on HCT-116 colon, with HL-60(TB) leukemia and in the test with SR leukemia was over 100 µM in each case. Also, the TGI in the test with LOX IMVI melanoma, in the test on MDA-MB-435, with CCRF-CEM leukemia, with HOP-92 NSCLC, in the test on NCI-H460 lung and in the test on MOLT-4 leukemia was over 100 µM in each case. For the same molecule, the TGI with PC-3 prostate, with SK-OV-3 ovarian, in the test with A498 renal, with TK-10 renal, in the test with U251 CNS and with COLO 205 colon was over 100 µM each time.
Turning to `N#Cc1c(N)oc(-c2cccc([N+](=O)[O-])c2)c1C#N`, the TGI in the test on MALME-3M melanoma was 61.6 µM; with HCC-2998 colon it was 33.6 µM; in the test with SN12C renal, 90.6 µM; in the test with HCT-116 colon, over 100 µM; in the test on HL-60(TB) leukemia it was 65.1 µM; in the test on SR leukemia, over 100 µM. Further, the TGI is 85.6 µM in the test on LOX IMVI melanoma; over 100 µM in the test on MDA-MB-435; over 100 µM in the test on CCRF-CEM leukemia; 37.7 µM in the test with HOP-92 NSCLC; over 100 µM in the test on PC-3 prostate; over 100 µM in the test with SK-OV-3 ovarian. For the same molecule, the TGI in the test with A498 renal is 61.7 µM; in the test on TK-10 renal it was 49.7 µM; in the test with U251 CNS, 94.5 µM; in the test with COLO 205 colon, 44.7 µM.
